Reference: patent US11981740B2, “BAFF-R antibodies and uses thereof” (CITY OF HOPE, priority 2016, dated 2024)

How the values were obtained:
SP49 cells = experiment: Ibrutinib sensitivity of parental SP49 cells; assay type: cell-based
Text: (§1) Animals, cell lines, and primary human tumor samples. BALB/c mice for antibody development and NOD scid gamma (NSG) breeding pairs were purchased from The Jackson Laboratory (Bar Harbor, ME). The NSG breeding colony was maintained by the Animal Resource Center at City of Hope. Mice were housed in a pathogen-free animal facility according to institutional guidelines. All animal studies were approved by the Institutional Animal Care and Use Committee (IACUC: 15020). JeKo-1, SU-DHL-6, Raji, U266 and RL were purchased from ATCC (Manassas, VA). Z-138 line was provided by Dr. Michael Wang (MD Anderson Cancer Center). Ibrutinib-resistant SP49-IR line was developed and provided by Dr. Jianguo Tao (University of South Florida). Ibrutinib-resistant SP49 cell lines (SP49-IR) were established by treating cells with escalating doses of ibrutinib. IC50 was 5 nM for parental SP49 compared to >100 nM for SP49-IR. At 100 nM ibrutinib ˜5% of SP49 cells were viable compared with >90% of SP49-IR cells. Human NK-92 176V cells were obtained from Conkwest Inc. (San Diego, CA). For human blood and tumor samples, non-cultured, primary human lymphomas were obtained as cryopreserved, viable single cell suspensions in 10% DMSO from the Lymphoma Satellite Tissue Bank at MD Anderson Cancer Center under an Institutional Review Board approved protocol (IRB: 2005-0656). […]

SP49-IR cells = experiment: Ibrutinib sensitivity of ibrutinib-resistant SP49-IR cells; assay type: cell-based
Text: as §1

[1] = system: RS4; 11 (acute lymphoblastic leukemia, ALL); experiment: In vivo RS4;11 ALL xenograft, bioluminescence imaging; details: RS4;11 challenged NSG mice
Text: FIG. 4A is a schematic showing treatment schedule following Day 0 tumor challenge with minimum lethal dose of tumors. Treatments were given by IV tail vein injections. FIGS. 4B and 4C are images showing chimeric antibodies targeting human BAFF-R elicited in vivo therapeutic effects against B-cell tumors. Bioluminescence images of mice challenged with luciferase-expressing tumors: JeKo-1 (MCL) (FIG. 4B) or RS4; 11 (ALL) (FIG. 4C). Experimental groups received treatment of chimeric BAFF-R mAbs (C55 or C90, as indicated). Control group mice received PBS, NK cells alone, or rituximab on the same schedule. Data are representative of three independent experiments.
(§2) In vivo studies. For tumor models, stable, luciferase-expressing tumors lines were established for bioluminescent imaging in mouse models. Briefly, a luciferase gene was introduced into tumor lines by a lentivirus gene delivery system (pLenti7.3/V5-DEST Gateway Vector Kit, Life Technologies, Carlsbad, CA). The minimum lethal dose per mouse was determined for each tumor cell line by dose titration. Tumor cells were injected intravenously (IV) and mice were monitored by in vivo bioluminescence imaging for minimum tumor dose to ensure engraftment. Minimum lethal tumor doses were: 1×10^6 JeKo-1, 5×10^5 RS4; 11, 5×10^5 JeKo-1-CD20-KO, or 2.5×10^4 Z-138 cells. […]

JeKo-1-CD20-KO clone 25 = experiment: ADCC on rituximab-resistant JeKo-1-CD20-KO; assay type: cell-based; details: E:T=20:1
Procedure: FIGS. 5A, 5B and 5C are images or graphs showing chimeric BAFF-R antibodies induce ADCC on drug resistant lymphoma models in vitro. FIG. 5A is a scatterplot of FACS analysis showing CD20 binding on JeKo-1 cells following CRISPR/HDR knock-out of CD20 gene. CD20 expression on selected CD20−/−clone #25 compared to WT JeKo-1. ADCC effects measured by chromium-51 release after incubation with C55, C90, or rituximab and effectors NK cells (E:T=20:1). Percentage of cell specific lysis of target cells: rituximab-resistant JeKo-1-CD20-KO (FIG. 5B) and ibrutinib-resistant Z-138 and SP49-IR (FIG. 5C). All data are representative of two or more identical experiments. Data are shown as the mean±s.d. of triplicate samples. *P<0.05 compared with NK cells by two-tailed Student's t-test.
Cytotoxicity assays. Target cells (L cells, human tumor lines, primary patient samples) were labeled with chromium-51 (51Cr, Perkin Elmer, Waltham, MA) for a 51Cr release assay. Briefly, antibodies and effectors (NK cells or complement serum standard [Sigma Aldrich, St. Louis, MO]), were added to labeled target cells and incubated up to 18 hours. NK cells were enriched from PBMC (NK cell enrichment kit, Stemcell Technologies, Vancouver, Canada). 51Cr released into supernatant was detected with a Wizard Automatic Gamma Counter (Perkin Elmer).
Generation of JeKo-1-CD20-KO. […]

[2] = system: JeKo-1-CD20-KO tumor cells; experiment: In vivo JeKo-1-CD20-KO xenograft; set-up: species or system NSG mice; details: Day 20
Text: FIGS. 6A and 6B are images and FIG. 6C are graphs showing chimeric antibodies targeting human BAFF-R elicited in vivo therapeutic effects against drug resistant B-cell tumors. Bioluminescence images of mice challenged with luciferase-expressing tumors JeKo-1-CD20-KO cells (FIG. 6A) or ibrutinib-resistant Z-138 cells (FIG. 6B) followed by antibody treatments as in FIG. 4. Control group mice received PBS, NK cells alone, or rituximab on the same schedule. […] Tumor free rate and survival differences between experimental and all control groups were analyzed by log-rank test (**P<0.001). Data are representative of three independent experiments.
as §2

[3] = system: JeKo-1, Z138, and RS4 lines; experiment: ADCC chromium release of humanized C90-4 and C90-5, dose response; assay type: cell-based; details: RS4 acute lymphoblastic lymphoma
Procedure: FIGS. 21A and 21B are graphs showing humanized antibodies C90-4 and C90-5 analyzed for their specific cytotoxicity of various lymphoma lines. For FIG. 21A, JeKo-1, Z138, and RS4 were subjected to a chromium release assay with humanized antibodies C90-4 and C90-5. Antibodies were administered to the cell lines at concentrations between 0 to 5 μg/mL and incubated for 6 hours with NK cells at an E:T ratio of 20:1. The cell supernatants were analyzed for their chromium content. For FIG. 21B, LY-10, MEC-2, RL, and Raji lymphoma lines were subjected to a chromium release assay with humanized antibodies C90-4 and C90-5. Antibodies were administered to the cell lines at 5 μg/mL and incubated for 6 hours with NK cells at an E:T ratio of 20:1. The cell supernatants were analyzed for their chromium content.
The two variants were further assessed in their ability to initiate ADCC. The antibodies were administered in varying concentration to JeKo-1, Z138, and RS4 lines after a period of chromium uptake. The cells and antibodies were incubated with effector NK cells. The supernatant was analyzed 6 hours post treatment (FIG. 21A).

Compound	viability at 0.1 µM (SP49 cells; At 100 nM ibrutinib, SP49, read-out: viable cells) [%]	IC50 (SP49 cells; parental SP49) [nM]	IC50 (SP49-IR cells) [nM]	viability at 0.1 µM (SP49-IR cells; At 100 nM ibrutinib, read-out: viable cells) [%]	tumor growth [1]	sensitivity to antibody-mediated cytotoxicity (JeKo-1-CD20-KO clone 25)	tumor burden by bioluminescent imaging [2]	ADCC activity [3]
C=CC(=O)N1CCC[C@@H](n2nc(-c3ccc(Oc4ccccc4)cc3)c3c(N)ncnc32)C1 [ibrutinib]	~5	5	> 100	> 90				
rituximab [reference compound]					no inhibition	insensitive	substantial tumor burden	not active
